{
  "source": "paper PMC4029172",
  "about": "(eLife, 2014)",
  "key": {"[1]": {"tested_on": "Enterobacter cloacae ATCC 13047", "assay": "microbe, parasite or virus in culture", "format": "cell-based", "settings": "ATCC13047"}, "[2]": {"tested_on": "Haemophilus influenzae ATCC 49247", "assay": "microbe, parasite or virus in culture", "format": "cell-based", "settings": "ATCC49247"}, "[3]": {"tested_on": "Moraxella catarrhalis ATCC 25238", "assay": "microbe, parasite or virus in culture", "format": "cell-based", "settings": "ATCC25238"}, "[4]": {"target": "Thermus thermophilus RNAP (Thermus thermophilus, UniProt Q8RQE8+Q8RQE9)", "sequence (Q8RQE8 whole entry)": "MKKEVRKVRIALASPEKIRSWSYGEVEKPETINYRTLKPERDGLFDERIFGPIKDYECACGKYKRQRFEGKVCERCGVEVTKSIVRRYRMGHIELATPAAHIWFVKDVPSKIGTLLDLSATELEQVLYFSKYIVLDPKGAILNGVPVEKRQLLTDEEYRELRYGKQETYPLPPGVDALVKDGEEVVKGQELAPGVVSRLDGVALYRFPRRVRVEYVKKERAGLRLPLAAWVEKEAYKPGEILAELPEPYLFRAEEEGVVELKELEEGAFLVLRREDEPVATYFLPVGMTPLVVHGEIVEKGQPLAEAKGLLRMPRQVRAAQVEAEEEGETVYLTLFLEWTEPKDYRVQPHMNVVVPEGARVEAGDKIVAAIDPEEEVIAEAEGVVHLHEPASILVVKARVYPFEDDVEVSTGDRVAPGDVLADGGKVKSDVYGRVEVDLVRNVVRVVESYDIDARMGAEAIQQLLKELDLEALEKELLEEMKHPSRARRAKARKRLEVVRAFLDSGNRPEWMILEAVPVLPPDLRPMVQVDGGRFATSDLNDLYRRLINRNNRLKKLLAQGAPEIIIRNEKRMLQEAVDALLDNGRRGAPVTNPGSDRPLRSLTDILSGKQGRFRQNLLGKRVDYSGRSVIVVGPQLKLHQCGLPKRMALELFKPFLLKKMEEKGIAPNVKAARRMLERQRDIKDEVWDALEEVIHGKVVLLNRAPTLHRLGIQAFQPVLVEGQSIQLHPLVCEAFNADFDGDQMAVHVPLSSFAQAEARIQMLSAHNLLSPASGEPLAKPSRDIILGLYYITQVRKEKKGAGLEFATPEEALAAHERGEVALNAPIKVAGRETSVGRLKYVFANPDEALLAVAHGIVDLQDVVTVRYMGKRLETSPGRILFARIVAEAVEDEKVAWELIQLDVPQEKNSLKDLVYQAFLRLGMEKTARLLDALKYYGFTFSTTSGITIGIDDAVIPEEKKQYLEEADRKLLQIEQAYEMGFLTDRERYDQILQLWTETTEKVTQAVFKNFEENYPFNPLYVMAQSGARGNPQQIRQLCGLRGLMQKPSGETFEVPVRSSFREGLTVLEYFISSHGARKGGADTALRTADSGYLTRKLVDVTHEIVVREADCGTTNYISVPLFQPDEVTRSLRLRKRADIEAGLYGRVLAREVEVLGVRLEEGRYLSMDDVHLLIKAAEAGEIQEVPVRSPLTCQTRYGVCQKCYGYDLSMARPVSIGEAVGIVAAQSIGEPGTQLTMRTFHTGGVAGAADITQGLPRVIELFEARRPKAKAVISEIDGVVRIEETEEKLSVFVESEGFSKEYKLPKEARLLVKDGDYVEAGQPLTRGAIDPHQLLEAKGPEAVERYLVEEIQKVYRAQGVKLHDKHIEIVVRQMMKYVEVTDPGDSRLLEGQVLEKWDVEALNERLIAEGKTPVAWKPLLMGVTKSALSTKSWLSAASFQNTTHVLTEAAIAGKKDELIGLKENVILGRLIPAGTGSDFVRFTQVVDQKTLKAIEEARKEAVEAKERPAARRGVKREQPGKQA", "sequence (Q8RQE9 whole entry)": "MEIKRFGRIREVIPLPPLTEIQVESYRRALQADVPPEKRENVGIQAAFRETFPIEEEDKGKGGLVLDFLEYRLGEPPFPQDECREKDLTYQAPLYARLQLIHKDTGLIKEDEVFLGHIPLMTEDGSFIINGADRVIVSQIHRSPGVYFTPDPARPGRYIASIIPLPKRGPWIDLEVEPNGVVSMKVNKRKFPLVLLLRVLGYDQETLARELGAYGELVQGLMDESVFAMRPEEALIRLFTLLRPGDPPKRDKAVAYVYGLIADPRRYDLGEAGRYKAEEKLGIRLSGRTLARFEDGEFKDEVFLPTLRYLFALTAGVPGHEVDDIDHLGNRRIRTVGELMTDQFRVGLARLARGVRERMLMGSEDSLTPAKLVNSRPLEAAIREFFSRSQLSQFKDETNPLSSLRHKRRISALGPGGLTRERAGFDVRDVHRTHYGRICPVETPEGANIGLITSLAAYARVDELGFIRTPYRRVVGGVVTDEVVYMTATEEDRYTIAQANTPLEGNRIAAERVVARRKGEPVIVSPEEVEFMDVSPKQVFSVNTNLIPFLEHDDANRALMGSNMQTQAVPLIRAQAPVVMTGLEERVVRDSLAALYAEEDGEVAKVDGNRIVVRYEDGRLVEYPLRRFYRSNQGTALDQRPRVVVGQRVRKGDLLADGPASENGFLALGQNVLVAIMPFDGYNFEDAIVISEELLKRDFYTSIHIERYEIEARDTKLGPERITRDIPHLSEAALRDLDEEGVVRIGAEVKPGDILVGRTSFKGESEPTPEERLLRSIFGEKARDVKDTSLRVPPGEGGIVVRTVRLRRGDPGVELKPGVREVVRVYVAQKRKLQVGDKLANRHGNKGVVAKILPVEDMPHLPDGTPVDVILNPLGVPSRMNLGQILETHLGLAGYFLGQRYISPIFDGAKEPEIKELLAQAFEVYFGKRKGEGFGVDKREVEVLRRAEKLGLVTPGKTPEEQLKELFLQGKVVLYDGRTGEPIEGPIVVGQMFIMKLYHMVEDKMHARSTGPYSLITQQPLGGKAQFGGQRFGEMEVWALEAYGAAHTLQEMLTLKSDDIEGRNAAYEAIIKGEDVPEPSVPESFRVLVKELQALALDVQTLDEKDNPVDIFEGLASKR", "assay": "biochemical"}},
  "note": "Numbered stars: 1 amine (or outer) side, 2 acyl side, 3 side chain; on linkers, the order of the positions; unused ones are H or OH. Bridge positions count the residues as written; N and C are the ends. Square brackets hold non-standard residues; d marks the D form. Peptide text beside a SMILES is read from it. * marks the point of attachment. X4 = CC(Oc1ccc(C(N[*:1])C(=O)[*:2])cc1)C(O)(C=CC(=O)[*:3])CCl; NMeF = CN[CH](Cc1ccccc1)C(=O)O; X3 = CC(C)C(O)C(C)C(=O)*",
  "data": [
    {"smiles": "CCC(C)C1NC(=O)C(NC(=O)C(C)C(O)C(C)C)C(C)OC(=O)C2COC(=O)CNC(=O)C=CC(O)(CCl)C(C)Oc3ccc(cc3)C(NC1=O)C(=O)N(C)C(Cc1ccccc1)C(=O)NC(C(C)O)C(=O)N2", "note": "(stereo not shown) [SalB, salinamide B] (X3-TI[X4][NMeF]TS; ester 1-C; linker 3-6 via G; configuration not given here)", "values": [
      {"measurement": "MIC", "setting": "[1]", "value": 12.5, "unit": "µg/mL"},
      {"measurement": "MIC", "setting": "[2]", "value": 12.5, "unit": "µg/mL"},
      {"measurement": "MIC", "setting": "[3]", "value": "> 50", "unit": "µg/mL"},
      {"measurement": "IC50", "setting": "[4]", "value": "> 100", "unit": "µM"}
    ]}
  ]
}
